Results from ChEMBL document CHEMBL4373746, “Structural attributes influencing unbound tissue distribution” (Eur J Med Chem, 2020).

How the values were obtained:
[1] = Fraction unbound in Wistar Han rat brain at 2 uM incubated for 6 hrs by equilibrium dialysis method
[2] = Drug concentration in total heart in Wistar Han rat at 1 to 2 mg/kg, iv infused for 10 to 20 hrs by LC-MS/MS analysis; conditions: in vivo
[3] = Drug concentration in total liver in Wistar Han rat at 1 to 2 mg/kg, iv infused for 10 to 20 hrs by LC-MS/MS analysis; conditions: in vivo
[4] = Fraction unbound in Wistar Han rat heart at 2 uM incubated for 6 hrs by equilibrium dialysis method
[5] = Drug concentration in total skeletal muscle in Wistar Han rat at 1 to 2 mg/kg, iv infused for 10 to 20 hrs by LC-MS/MS analysis; conditions: in vivo
[6] = Apparent permeability of the compound across dog RRCK cells by MDCK-LE assay
[7] = Total plasma concentration in Wistar Han rat at 1 to 2 mg/kg, iv infused for 10 to 20 hrs by LC-MS/MS analysis; conditions: in vivo
[8] = Drug concentration in total white adipose tissue in Wistar Han rat at 1 to 2 mg/kg, iv infused for 10 to 20 hrs by LC-MS/MS analysis; conditions: in vivo
[9] = Unbound tissue partition coefficient, ratio of drug level in liver to plasma in Wistar Han rat at 1 to 2 mg/kg, iv infused for 10 to 20 hrs by LC-MS/MS analysis; conditions: liver/plasma
[10] = Fraction unbound in Wistar Han rat plasma at 2 uM incubated for 6 hrs by equilibrium dialysis method
[11] = Unbound tissue partition coefficient, ratio of drug level in brain to plasma in Wistar Han rat at 1 to 2 mg/kg, iv infused for 10 to 20 hrs by LC-MS/MS analysis; conditions: brain/plasma
[12] = Unbound tissue partition coefficient, ratio of drug level in adipose to plasma in Wistar Han rat at 1 to 2 mg/kg, iv infused for 10 to 20 hrs by LC-MS/MS analysis; conditions: adipose/plasma
[13] = Unbound tissue partition coefficient, ratio of drug level in heart to plasma in Wistar Han rat at 1 to 2 mg/kg, iv infused for 10 to 20 hrs by LC-MS/MS analysis; conditions: heart/plasma
[14] = Unbound tissue partition coefficient, ratio of drug level in skeletal muscle to plasma in Wistar Han rat at 1 to 2 mg/kg, iv infused for 10 to 20 hrs by LC-MS/MS analysis; conditions: skeletal muscle/plasma
[15] = Fraction unbound in Wistar Han rat skeletal muscle at 2 uM incubated for 6 hrs by equilibrium dialysis method
[16] = Drug concentration in total brain in Wistar Han rat at 1 to 2 mg/kg, iv infused for 10 to 20 hrs by LC-MS/MS analysis; conditions: in vivo
[17] = Fraction unbound in Wistar Han rat white adipose tissue at 2 uM incubated for 6 hrs by equilibrium dialysis method
[18] = Fraction unbound in Wistar Han rat liver at 2 uM incubated for 6 hrs by equilibrium dialysis method

Row | Structure (SMILES) | fraction unbound at 6 h, 2 µM [1] | Ct [2] [ng/mL] | Ct [3] [ng/mL] | fraction unbound at 6 h, 2 µM [4] | Ct [5] [ng/mL] | Papp [6] [×10⁻⁶ cm/s] | Cp [7] [ng/mL] | Ct [8] [ng/mL] | Kp uu [9] | fraction unbound at 6 h, 2 µM [10] | Kp uu [11] | Kp uu [12] | Kp uu [13] | Kp uu [14] | fraction unbound at 6 h, 2 µM [15] | Ct [16] [ng/mL] | fraction unbound at 6 h, 2 µM [17] | fraction unbound at 6 h, 2 µM [18]
1 | COc1ccc2ncc(F)c([C@@H](O)CC[C@@H]3CCN(CCSc4cccs4)C[C@@H]3C(=O)O)c2c1 | 0.0945 | 77 | 350 | 0.15 | 33 | 9.8 | 79 | 5.4 | 4.5 | 0.19 | 0.0032 | 0.26 | 0.75 | 0.29 | 0.132 | 0.69 | 0.672 | 0.191
2 | COc1ccc(-c2cc3c(C(=O)O)n[nH]c3cc2Cl)cc1 | 0.0135 | 29 | 140 | 0.0256 | 1.9 | 8.8 | 96 | 1 | 6.5 | 0.00439 | 0.017 | 1.2 | 1.8 | 0.15 | 0.0398 | 0.6 | 0.334 | 0.0193
3 | COc1ccc(-c2cc3c(S(=O)(=O)O)c[nH]c3cc2Cl)cc1 | 0.0414 | 82 | 380 | 0.0523 | 16 | 2.3 | 330 | 15 | 8.7 | 0.00473 | 0.13 | 3.8 | 2.9 | 0.6 | 0.0546 | 4.2 | 0.347 | 0.0303
4 | O=C(O)[C@@H]1CCN(C(=O)n2cnc(-c3ccc(-c4cnc(N5CCOCC5)nc4)cc3)n2)[C@@H](c2ccccc2)C1 | 0.00874 | 80 | 1.5 | 0.0159 | 20 | 17 | 88 | 0.77 | 0.037 | 0.00353 | 0.0018 | 0.024 | 4.2 | 1.1 | 0.017 | 0.38 | 0.165 | 0.00824
5 | CC(C)(O)CS(=O)(=O)c1ccc2c(c1)nc(C(C)(C)C)n2CC1CCOCC1 | 0.538 | 91 | 320 | 0.321 | 60 | 28 | 55 | 55 | 5.4 | 0.469 | 0.13 | 1.7 | 1.1 | 0.48 | 0.203 | 6.2 | 0.786 | 0.437
6 | O=C(NC(c1ccccc1)c1ccccc1)C1CC1 | 0.079 | 230 | 230 | 0.1 | 40 | 35 | 79 | 880 | 5.4 | 0.0667 | 3.2 | 3.9 | 4.7 | 0.68 | 0.0833 | 200 | 0.0208 | 0.12
7 | O=C(O)[C@@H]1CCCN(C(=O)n2cnc(-c3ccc(-c4cnc(N5CCOCC5)nc4)cc3)n2)[C@H]1c1ccccc1 | 0.00251 | 59 | 860 | 0.00542 | 18 | 7.9 | 120 | 8 | 18 | 0.00273 | 0.0089 | 2.5 | 1.1 | 0.3 | 0.00554 | 1.5 | 0.089 | 0.00643
8 | COCCCN1C[C@H](C)N(C(=O)N2Cc3c(NC(=O)c4ccccn4)n[nH]c3C2(C)C)C[C@H]1C | 0.0796 | 110 | 170 | 0.341 | 68 | 21 | 30 | 27 | 3.8 | 0.614 | 0.015 | 0.51 | 2.2 | 1.5 | 0.385 | 3.4 | 0.329 | 0.375
9 | Cc1nc2cc(-c3cc(F)cc(C#N)c3)ccc2s1 | 0.00394 | 66 | 480 | 0.0101 | 25 | 34 | 31 | 570 | 20 | 0.00655 | 1.5 | 2.6 | 3.3 | 0.6 | 0.0047 | 73 | 0.000864 | 0.00815

Continued, values first:

Row | fraction unbound at 6 h, 2 µM [1] | Ct [2] [ng/mL] | Ct [3] [ng/mL] | fraction unbound at 6 h, 2 µM [4] | Ct [5] [ng/mL] | Papp [6] [×10⁻⁶ cm/s] | Cp [7] [ng/mL] | Ct [8] [ng/mL] | Kp uu [9] | fraction unbound at 6 h, 2 µM [10] | Kp uu [11] | Kp uu [12] | Kp uu [13] | Kp uu [14] | fraction unbound at 6 h, 2 µM [15] | Ct [16] [ng/mL] | fraction unbound at 6 h, 2 µM [17] | fraction unbound at 6 h, 2 µM [18] | Structure (SMILES)
10 | 0.0553 | 260 | 360 | 0.076 | 110 | 5.8 | 81 | 20 | 2.7 | 0.212 | 0.048 | 0.16 | 1.2 | 0.71 | 0.114 | 15 | 0.132 | 0.125 | COc1ccc(Cc2cc([C@@H]3OC4(COC4)[C@@H](O)[C@H](O)[C@H]3O)ccc2C)cc1
11 | 0.00429 | 360 | 1200 | 0.00363 | 180 | 16 | 210 | 1800 | 7 | 0.00785 | 0.4 | 2.3 | 0.77 | 0.13 | 0.0012 | 150 | 0.00185 | 0.00939 | COc1cc(/C=C2\CCCN([C@@H](C)c3ccc(F)cc3)C2=O)ccc1-n1cnc(C)c1
12 | 0.886 | 140 | 210 | 0.746 | 100 | 27 | 50 | 29 | 3.9 | 0.511 | 2.5 | 0.95 | 4 | 1.3 | 0.304 | 68 | 0.709 | 0.439 | O=C(NC1CC1)c1nc2cccnn2c1-c1ccc2ncnn2c1
13 | 0.0111 | 56 | 220 | 0.0129 | 17 | 4.4 | 120 | 8 | 7.1 | 0.00353 | 0.0018 | 2.5 | 1.8 | 0.85 | 0.021 | 0.38 | 0.126 | 0.0134 | Cc1ccc(CC(C)(C)NC[C@@H](O)CO[C@H](C)c2ccccc2-c2ccc(C(=O)O)c(C)c2)cc1F
